Measured values from the supplement of paper PMC11061612.

How the values were obtained:
RVH-421 (Melanoma) [1] = assay: Bliss excess, mean over the matrix (fraction); higher = more synergy
Procedure, shortened: (§1)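 Cell lines in DMEM/F12 or RPMI with 10% FBS were plated in 1536-well plates, held 24 hours at 37°C, 5% CO2, then given two-drug dose matrices for 72 hours (DMSO typically 0.2%). Viability was read by CellTiter-Glo 2.0 luminescence and scaled as inhibition from 0 (vehicle wells) to 1 (blank wells). Combination Emax is the second-highest inhibition in the matrix; Bliss excess is observed combination effect minus expected EA + EB − EA·EB, EA and EB being single-agent effects.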

[2] = test system: ATN-1 (T-Lymphoblastic Leukemia); assay: combination Emax (second highest fraction inhibited in the dose matrix, 72 h); higher = more inhibition; extreme values may be limits of the assay
Procedure, shortened: as §1

[3] = test system: BC-1 (B-Cell Non-Hodgkin's Lymphoma); assay: as above
Procedure, shortened: as §1

[4] = test system: BT-474 (Breast Carcinoma); assay: as above
Procedure, shortened: as §1

[5] = test system: COR-L105 (Lung Adenocarcinoma); assay: as above
Procedure, shortened: as §1

DK-MG (Glioblastoma) = assay: as above
Procedure, shortened: as §1

GCIY (Gastric Carcinoma) = assay: as above
Procedure, shortened: as §1

[6] = test system: HT-3 (Cervical Carcinoma); assay: as above
Procedure, shortened: as §1

[7] = test system: JURL-MK1 (Chronic Myelogenous Leukemia); assay: as above
Procedure, shortened: as §1

[8] = test system: MDA-MB-175-VII (Breast Carcinoma); assay: as above
Procedure, shortened: as §1

MG-63 (Osteosarcoma) = assay: as above
Procedure, shortened: as §1

[9] = test system: NCI-H1435 (Non-Small Cell Lung Carcinoma); assay: as above
Procedure, shortened: as §1

[10] = test system: NCI-H2009 (Lung Adenocarcinoma); assay: as above
Procedure, shortened: as §1

NCI-H2452 (Mesothelioma) = assay: as above
Procedure, shortened: as §1

[11] = test system: OVKATE (Ovarian Carcinoma); assay: as above
Procedure, shortened: as §1

[12] = test system: RPMI-8402 (T-Lymphoblastic Leukemia); assay: as above
Procedure, shortened: as §1

[13] = test system: RS4-11 (B-Lymphoblastic Leukemia); assay: as above
Procedure, shortened: as §1

RVH-421 (Melanoma) [14] = assay: as above
Procedure, shortened: as §1
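Throughout, for Bliss excess, mean over the matrix: after 72 h of two-drug dosing.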

SMILES | Bliss excess (RVH-421 (Melanoma) [1]) | combination Emax [2] | combination Emax [3] | combination Emax [4] | combination Emax [5] | combination Emax (DK-MG (Glioblastoma)) | combination Emax (GCIY (Gastric Carcinoma)) | combination Emax [6] | combination Emax [7] | combination Emax [8] | combination Emax (MG-63 (Osteosarcoma)) | combination Emax [9] | combination Emax [10] | combination Emax (NCI-H2452 (Mesothelioma)) | combination Emax [11] | combination Emax [12] | combination Emax [13] | combination Emax (RVH-421 (Melanoma) [14])
COc1cc2c(cc1OCCCCCOc1cc3c(cc1OC)C(=O)N1C=C(C)C[C@H]1C=N3)N=C[C@@H]1CC(C)=CN1C2=O [SG3199] + O=C(c1cc(Cc2n[nH]c(=O)c3ccccc23)ccc1F)N1CCN(C(=O)C2CC2)CC1 [Olaparib] (first compound max 0.001 µM, 7x7, partner max 10 µM) | -0.0773 | 0.0857 | 0.181 | 0.049 | 0.0843 | 0.099 | 0.258 | 0.0808 | 0.418 | 0.0059 | 0.198 | 0.107 | 0.144 | 0.155 | 0.0519 | 0.435 | 0.591 | 0.0596
C[C@@H](c1ccc2nccn2c1)n1nnc2ncc(-c3cnn(C)c3)nc21 [Savolitinib] + Cc1c2c(nn1C)CSCc1cc(n(C)n1)CSc1cc(c3ccccc3c1)OCCCc1c(C(=O)O)n(C)c3c-2c(Cl)ccc13 [AZD5991] (first compound max 1 µM, 7x7, partner max 1 µM) |  | 0.904 | 1 | 0.628 | 0.165 | 0.417 | 0.176 | 0.207 | 0.129 | 0.185 | 0.257 | 0.122 | 0.217 | 0.205 | 0.144 | 0.502 | 0.435 | 
Cc1nc(Nc2ncc(C(=O)Nc3c(C)cccc3Cl)s2)cc(N2CCN(CCO)CC2)n1 [Dasatinib] + CC(=O)Nc1cccc(-n2c(=O)n(C3CC3)c(=O)c3c(Nc4ccc(I)cc4F)n(C)c(=O)c(C)c32)c1 [Trametinib] (first compound max 2 µM, 7x7, partner max 1 µM) |  | 0.591 | 0.418 | 0.0101 | 0.806 | 0.895 | 0.83 | 0.157 | 1 | 0.513 | 0.734 | 0.42 | 0.916 | 0.804 | 0.484 | 0.307 | 0.236 | 
CN(CCO)CC[C@H](CSc1ccccc1)Nc1ccc(S(=O)(=O)NC(=O)c2ccc(N3CCC([C@@H](O)c4ccccc4-c4ccc(Cl)cc4)CC3)cc2)cc1S(=O)(=O)C(F)(F)F [AZD4320] + Cc1cc2ncnn2cc1Nc1ncc2c(n1)n(C1CCOCC1)c(=O)n2C [AZD7648] (first compound max 1 µM, 7x7, partner max 10 µM) | -0.0345 | 0.778 | 0.509 | 0.154 | 0.253 | 0.261 | 0.609 | 0.0567 | 0.827 | 0.274 | 0.179 | 0.752 | 0.0699 | 0.386 | 0.303 | 0.929 | 1 | 0.211
Cc1cc2ncnn2cc1Nc1ncc2c(n1)n(C1CCOCC1)c(=O)n2C [AZD7648] + O=C(c1cc(Cc2n[nH]c(=O)c3ccccc23)ccc1F)N1CCN(C(=O)C2CC2)CC1 [Olaparib] (first compound max 10 µM, 7x7, partner max 10 µM) | -0.0684 | 0.356 | 0.385 | 0.117 | 0.222 | 0.262 | 0.342 | 0.0499 | 0.543 | 0.142 | 0.53 | 0.149 | 0.137 | 0.266 | 0.148 | 0.561 | 0.484 | 0.0825
CN(CCO)CC[C@H](CSc1ccccc1)Nc1ccc(S(=O)(=O)NC(=O)c2ccc(N3CCC([C@@H](O)c4ccccc4-c4ccc(Cl)cc4)CC3)cc2)cc1S(=O)(=O)C(F)(F)F [AZD4320] + Nc1ccn([C@@H]2O[C@H](CO)[C@@H](O)C2(F)F)c(=O)n1 [Gemcitabine] (first compound max 1 µM, 7x7, partner max 0.3 µM) |  |  | 0.974 |  | 0.514 |  | 0.782 |  |  | 0.824 | 0.973 | 0.823 | 0.505 | 0.355 | 0.246 | 1 |  | 
Cc1cc2ncnn2cc1Nc1ncc2c(n1)n(C1CCOCC1)c(=O)n2C [AZD7648] + COc1cc([C@@H]2c3cc4c(cc3[C@@H](O[C@@H]3O[C@@H]5CO[C@@H](C)O[C@H]5[C@H](O)[C@H]3O)[C@H]3COC(=O)[C@H]23)OCO4)cc(OC)c1O [Etoposide] (first compound max 10 µM, 7x7, partner max 10 µM) |  |  | 0.984 |  | 0.338 |  | 0.759 |  |  | 0.399 | 0.874 | 0.286 | 0.824 | 0.355 | 0.266 | 1 |  | 
CN(CCO)CC[C@H](CSc1ccccc1)Nc1ccc(S(=O)(=O)NC(=O)c2ccc(N3CCC([C@@H](O)c4ccccc4-c4ccc(Cl)cc4)CC3)cc2)cc1S(=O)(=O)C(F)(F)F [AZD4320] + C[C@@H](Nc1cc(F)cc(F)c1)c1cc(C(=O)N(C)C)cc2c(=O)cc(N3CCOCC3)oc12 [AZD8186] (first compound max 1 µM, 7x7, partner max 3 µM) | 0.0798 | 0.807 | 0.461 | 0.428 | 0.387 | 0.557 | 0.719 | 0.237 | 0.871 | 0.453 | 0.375 | 0.966 | 0.553 | 0.364 | 0.438 | 0.994 | 1 | 0.464
C[C@@H](c1ccc2nccn2c1)n1nnc2ncc(-c3cnn(C)c3)nc21 [Savolitinib] + CC1(C)CCC(CN2CCN(c3ccc(C(=O)NS(=O)(=O)c4ccc(NCC5CCOCC5)c([N+](=O)[O-])c4)c(Oc4cnc5[nH]ccc5c4)c3)CC2)=C(c2ccc(Cl)cc2)C1 [Venetoclax] (first compound max 1 µM, 7x7, partner max 1 µM) |  | 0.186 | 0.209 | 0.0943 | 0.186 | 0.352 | 0.213 | 0.137 | 0.127 | 0.2 | 0.238 | 0.177 | 0.204 | 0.174 | 0.155 | 0.183 | 1 | 
Cc1cc2ncnn2cc1Nc1ncc2c(n1)n(C1CCOCC1)c(=O)n2C [AZD7648] + CCN(CCO)CCCOc1ccc2c(Nc3cc(CC(=O)Nc4cccc(F)c4)[nH]n3)ncnc2c1 [AZD2811] (first compound max 10 µM, 7x7, partner max 1 µM) | -0.0193 | 0.832 | 0.871 | 0.237 | 0.31 | 0.273 | 0.49 | 0.231 | 0.601 | 0.323 | 0.39 | 0.288 | 0.335 | 0.497 | 0.27 | 0.886 | 0.968 | 0.299
C[C@@H](c1ccc2nccn2c1)n1nnc2ncc(-c3cnn(C)c3)nc21 [Savolitinib] + CN(CC[C@H](CSC1=CC=CC=C1)NC2=C(C=C(C=C2)S(=O)(=O)NC(=O)C3=CC=C(C=C3)N4CCC(CC4)[C@H](C5=CC=CC=C5C6=CC=C(C=C6)Cl)O)S(=O)(=O)C(F)(F)F)CCO [AZD4320] (first compound max 1 µM, 7x7, partner max 1 µM) |  | 0.679 |  | 0.262 |  | 0.37 |  | 0.15 | 0.889 |  |  |  |  |  |  |  | 1 | 
COc1cc2ncnc(Nc3ccc(F)c(Cl)c3)c2cc1OCCCN1CCOCC1 [Gefitinib] + CC(C)n1c(=O)n(C)c2cnc3cc(F)c(-c4ccc(OCCCN5CCCCC5)nc4)cc3c21 [AZD1390] (first compound max 10 µM, 7x7, partner max 0.3 µM) |  | 0.296 | 0.601 | 0.485 | 0.619 | 0.248 | 0.459 | 0.0187 | 0.499 | 0.93 | 0.202 | 0.114 | 0.119 | 0.306 | 0.155 | 0.56 | 0.168 | 
CN(CCO)CC[C@H](CSc1ccccc1)Nc1ccc(S(=O)(=O)NC(=O)c2ccc(N3CCC([C@@H](O)c4ccccc4-c4ccc(Cl)cc4)CC3)cc2)cc1S(=O)(=O)C(F)(F)F [AZD4320] + CCN(CCO)CCCOc1ccc2c(Nc3cc(CC(=O)Nc4cccc(F)c4)[nH]n3)ncnc2c1 [AZD2811] (first compound max 1 µM, 7x7, partner max 1 µM) | -0.0297 | 0.939 | 0.662 | 0.319 | 0.215 | 0.255 | 0.554 | 0.177 | 0.929 | 0.413 | 0.86 | 0.699 | 0.224 | 0.364 | 0.347 | 0.999 | 1 | 0.196
N#Cc1cnc(Nc2cc(NC[C@H]3CNCCO3)c(C(F)(F)F)cn2)cn1 [SRA737] + O=c1[nH]cc(F)c(=O)[nH]1 [5-Fluorouracil] (first compound max 10 µM, 7x7, partner max 20 µM) |  |  | 0.739 |  | 0.234 |  | 0.505 |  |  | 0.21 | 0.492 | 0.164 | 0.444 | 0.513 | 0.147 | 1 |  | 
N#Cc1cnc(Nc2cc(NC[C@H]3CNCCO3)c(C(F)(F)F)cn2)cn1 [SRA737] + CCc1c2c(nc3ccc(O)cc13)-c1cc3c(c(=O)n1C2)COC(=O)[C@]3(O)CC [SN-38] (first compound max 10 µM, 7x7, partner max 0.3 µM) |  |  | 0.952 |  | 0.38 |  | 0.85 |  |  | 0.63 | 0.953 | 0.46 | 0.768 | 0.787 | 0.138 | 1 |  | 
